Earlier results on 4 compounds are cited in patent US8940311B2, “In situ controlled release drug delivery system” (priority 2004, dated 2015).

In one series the target is plasma cholinesterase (Homo sapiens, UniProt P06276). The settings on record: hydrolysis by plasma cholinesterase.

The structures appear in SMILES notation.

Sequence of plasma cholinesterase (P06276 29-602): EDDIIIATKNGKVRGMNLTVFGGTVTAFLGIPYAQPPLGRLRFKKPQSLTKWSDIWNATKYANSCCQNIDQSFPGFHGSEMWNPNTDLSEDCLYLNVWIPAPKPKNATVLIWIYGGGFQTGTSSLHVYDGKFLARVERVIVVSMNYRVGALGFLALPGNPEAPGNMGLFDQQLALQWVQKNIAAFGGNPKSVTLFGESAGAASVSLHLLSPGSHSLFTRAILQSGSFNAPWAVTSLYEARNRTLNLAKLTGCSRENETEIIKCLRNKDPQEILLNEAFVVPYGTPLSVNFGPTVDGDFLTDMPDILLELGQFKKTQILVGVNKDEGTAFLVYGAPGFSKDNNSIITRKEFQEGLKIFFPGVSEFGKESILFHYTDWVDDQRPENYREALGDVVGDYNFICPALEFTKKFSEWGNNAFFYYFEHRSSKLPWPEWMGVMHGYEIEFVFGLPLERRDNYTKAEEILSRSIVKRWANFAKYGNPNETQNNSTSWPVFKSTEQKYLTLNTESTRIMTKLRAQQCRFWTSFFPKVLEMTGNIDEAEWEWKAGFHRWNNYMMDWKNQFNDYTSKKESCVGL

As to `CCN(CC)CCOC(=O)c1ccc(N)cc1Cl` [chloroprocaine], the half-life result on plasma cholinesterase is given as “less than one”.
Regarding `CCCN(CC)C(CC)C(=O)Nc1c(C)cccc1C` (stereo not shown) [etidocaine], the “order of rate of amide hydrolysis” value in the series on liver microsomal enzymes is “fastest”.
On to `CCCCN1CCCCC1C(=O)Nc1c(C)cccc1C` (stereo not shown) [bupivacaine], for which, in the series with liver microsomal enzymes, the “order of rate of amide hydrolysis” value was “slowest”.
Consider `CCN(CC)CCOC(=O)c1ccc(N)cc1` [procaine], for which, on plasma cholinesterase, the half-life entry is “less than one”.
